Assay results published in paper PMC6259748, “Selection of Peptides Targeting Helix 31 of Bacterial 16S Ribosomal RNA by Screening M13 Phage-Display Libraries” (Molecules, 2011).
“Also recorded” adds a separate entry of the source.

Experiments:
wild-type modified h31 [1] = test: surface plasmon resonance (SPR), modified h31; type: binding, E. coli; settings: for ka (association rate constant) / kd (dissociation rate constant): 1:1 Langmuir, 150 mM NaCl, 50 μL/min, 25 °C, CM5 chip; for ka (association rate constant): 10 mM Tris·HCl, 10 mM MgCl2, 1 mM DTT, 0.005% P20, pH 7.5; for kd (dissociation rate constant): pH 7.5, 10 mM MgCl2
Protocol: Modified h31 was labeled with biotin in order to immobilize the RNA onto a surface and determine the kinetics of peptide binding by surface plasmon resonance (SPR). […] In order to enhance the signal-to-noise ratio, a GFP-protein-fused peptide, TYLPWPA-GFP, was generated and used as the analyte.
Biotinylated, modified h31 RNA was immobilized onto a streptavidin-coated CM5 chip and differing concentrations of TYLPWPA-GFP (10–100 µM) were injected as the analyte. A range of salt concentrations, detergent levels, pH conditions, and flow rates were tested, since these factors affect the peptide-RNA complex formation (data not shown). The apparent dissociation constants were determined under the following optimized conditions: 10 mM Tris·HCl, 150 mM NaCl, 10 mM MgCl2, 1 mM dithiothreitol (DTT), 0.005% (v/v) P20 at pH 7.5 as the running buffer at a flow rate of 50 μL/min.
All immobilization and subsequent binding studies were performed using a BIAcore 2000 instrument set at a temperature of 25 °C. Standard dextran surface BIAcore sensorchips (Sensor chip CM5) were purchased from BIAcore (GE Healthcare, Piscataway, NJ). Standard desorb and sanitize routines were performed according to the BIAcore guidelines before docking a new CM5 sensor chip. All buffers were filtered through sterile 0.2 μm nylon membranes (Millipore™) under vacuum. Before derivatizing the flow cells with streptavidin, the CM5 sensor chip was pre-conditioned using three successive 10 μL injections of chip-preparation solution (10 mM NaOH, 500 mM NaCl) at 100 μL/min, followed by a normalization routine using BIAnormalizing solution (40% glycerol). Streptavidin derivatization was performed according to standard procedures.
Prior to immobilization, the solution of biotinylated RNA in HBS-EP buffer (10 mM HEPES, 3 mM EDTA, 150 mM NaCl, 0.005% P20 at pH 7.4) was renatured by heating to 90 °C for 2 min, cooling gradually to room temperature, and placing on ice. Flow cells were functionalized by injecting 30 μL of RNA at a time using the MANUAL INJECT command at a flow rate of 10 μL/min, until the desired immobilization level was reached. One of the flow cells was used to immobilize RNA, while the adjacent cell remained unmodified to serve as a blank-control for matrix effects. Levels of RNA captured were calculated by subtracting […] for each flow cell. After RNA immobilization, both flow cells were blocked with 100 μL of 1 mg/mL biotin at 5 μL/min.
For the SPR experiments, the peptides were cloned into plasmid pBacEmGH (Cunningham Lab, to be described elsewhere) under transcriptional regulation of a PBAD promoter. Upon induction with L-arabinose, the resulting construct produces a fusion protein in which the peptide is fused to the N-terminus of EmGFP containing a C-terminus 6 x His affinity tag (PEP-EmGFP-6 x His).
Peptide samples were prepared by serial dilutions from stock solutions. Dilutions were made in running buffer (10 mM Tris·HCl, 150 mM NaCl, 10 mM MgCl2, 1 mM DTT, 0.005% (v/v) P20 at pH 7.5). All procedures for binding were automated, as optimized methods using repetitive cycles of sample injection and regeneration. Typically, running buffer was injected for ~30 min prior to experiment to establish a stable baseline value. Peptide solutions (200 μL) were injected at a kinetic flow rate of 50 μL/min, using the KINJECT command. All peptide samples were injected from 7 mm plastic vials (BIAcore) that were capped with pierceable plastic-crimp-caps to minimize carry-over and sample evaporation. Samples were injected in order of increasing concentration. The surface was regenerated using 150 μL of 500 mM NaCl. The data were fit to a 1:1 binding Langmuir model using BIAevaluation 3.0 software. […]

unmodified h31 = test: surface plasmon resonance (SPR), unmodified h31; type: binding, E. coli; settings: analyte 1 μM; ~200 fmoles RNA immobilized; injection time 1 min
Protocol: All immobilization and subsequent binding studies were performed using a BIAcore 2000 instrument set at a temperature of 25 °C. Standard dextran surface BIAcore sensorchips (Sensor chip CM5) were purchased from BIAcore (GE Healthcare, Piscataway, NJ). Standard desorb and sanitize routines were performed according to the BIAcore guidelines before docking a new CM5 sensor chip. All buffers were filtered through sterile 0.2 μm nylon membranes (Millipore™) under vacuum. […]
Prior to immobilization, the solution of biotinylated RNA in HBS-EP buffer (10 mM HEPES, 3 mM EDTA, 150 mM NaCl, 0.005% P20 at pH 7.4) was renatured by heating to 90 °C for 2 min, cooling gradually to room temperature, and placing on ice. […] Levels of RNA captured were calculated by subtracting response units after injection from response units before injection for each flow cell. […]
Kinetic constants were determined by integration of the experimental data using the differential rate equation dRU/dt = ka·C·(RUmax-RU)-kd·RU to obtain ka and kd values simultaneously (RU = observed response, RUmax = maximum response upon saturation, C = analyte concentration, ka = association rate constant, kd = dissociation rate constant). […]

wild-type modified h31 [2] = test: surface plasmon resonance (SPR), modified h31; type: binding, E. coli; settings: SPR kinetic analysis, 1:1 Langmuir; pH 7.5; 150 mM NaCl, 10 mM MgCl2; 50 μL/min; 25 °C; analyte 0–1 μM
[3] = test system: translation of green fluorescent protein (GFP); test: coupled in vitro transcription-translation inhibition assay (GFP); type: biochemical, E. coli
Protocol: A cell-free translation assay was used to test the potential inhibitory effects of the peptides on protein synthesis. Different concentrations of peptides were added to E. coli S30 extracts and the extent of inhibition was monitored by the measurement of green fluorescent protein (GFP) translation.
The inhibitory effects of selected peptides (DIRTQRE, CVRPFAL, FVRPFAL, TLWDLIP and TYLPWPA) on cellular processes were determined by in vitro coupled transcription-translation inhibition assay. The PURExpress™ in vitro protein synthesis kit #E6800S from New England Biolabs (Beverly, MA) was used for this purpose. A DNA template for GFP (pRSETEmGFP plasmid, Invitrogen) was employed at a concentration of 10 µg/mL in a 15 µL of reaction volume. Different concentrations of peptides were added, ranging from 300 µM to 2 mM. The DNA template was added only after mixing of the peptides or streptomycin so that they could bind to their target region first. For the control, streptomycin was added at a final concentration of 300 µM. The reaction was incubated in 384-well, Costar, clear-well, black plates and in situ incubated at 37 °C in a Gemini XPS microplate spectrofluorometer (Molecular Devices, Sunnyvale, CA) and the amount of GFP produced was monitored at different time intervals from 0 min to 2 h by fluorescence (excitation at 487 nm, emission at 509 nm).

[4] = test system: GFP-S11-labeled 30S subunits; test: ribosome-binding assay on Tentagel beads; set-up: species or system E. coli
Protocol: The purpose of this experiment was to determine whether the selected peptides have affinity for bacterial ribosomes. The binding affinities of various peptides could also be compared by this method. Small ribosomal subunits, 30S, labeled with GFP on ribosomal protein S11 were added to peptides covalently attached to Tentagel beads (Figure 4A). […] The peptides were chemically synthesized on Tentagel beads with their N-termini exposed. Increasing concentrations of GFP-tagged 30S subunits were added to the Tentagel-bound peptides and unbound 30S subunits were removed by washing. Relative fluorescence intensity of the 30S subunits bound to the peptides on bead was determined by imaging on a fluorescence microscope, with the assumption that the level of fluorescence on the beads was proportional to the affinity of the ribosome for the peptide sequence.
Four peptides isolated from the phage-display experiment, […], DIRTQRE, TLWDLIP, and […], were synthesized on Tentagel (Rapp Polymer, Tübingen, Germany) beads using standard Fmoc synthesis. The beads were stored in DMF until use. The beads were then washed three times with 450 μl of water, and three times with 450 μL of the binding buffer B (binding buffer: 20 mM HEPES, pH 7.3, 10 mM MgCl2, 100 mM KCl), using 0.45 μm MWCO Nanosep (Pall Corporation, Ann Arbor, MI). The beads were then centrifuged at 6,000 rpm for 1–2 min.
(§1) Fluorescently labeled 30S subunits were isolated by sucrose gradient centrifugation in 5 mM Mg^2+ [82]. For control experiments, His(6)-EmGFP-S11 was purified using IMAC resin (Bio-Rad, Hercules, CA) and the fluorescence was assayed using beads carrying peptides with ribosomes, beads carrying peptides with His(6)-EmGFP-S11 (no ribosomes) and beads only with ribosomes (no peptides).
(§2) The fluorescent ribosomes were incubated in binding buffer B (20 mM HEPES, pH 7.3, 10 mM MgCl2, 100 mM KCl) at 37 °C for 30 min. Next, 25 pmoles of ribosome solution was added to each peptide, and the mixture was incubated overnight at 4 °C with agitation. Unbound ribosomes were removed by two 450 μL washes with binding buffer B and centrifugation at 6,000 rpm for 1–2 min. The beads were resuspended in 40 μL of binding buffer B for microscope screening and kept on ice until scanning. The beads (20 μL) were spread on microscope slides for scanning (Olympus 1X71 microscope, TH4 100 Olympus lamp, Olympus UCMAD 3 camera, 20× magnification). An average of two pictures were taken per slide, eliminating beads presenting uneven swelling and cracks.

His(6)-EmGFP-S11 protein = test: bead control with S11-emGFP protein (no ribosomes); type: binding, E. coli; settings: purified His(6)-EmGFP-S11 added to peptide on beads
Protocol: The fluorescence intensity of each set of beads containing the selected peptides was quantified.
as §1, §2

Substance | ka (association rate constant) (wild-type modified h31 [1]) | kd (dissociation rate constant) (wild-type modified h31 [1]) | binding interaction with unmodified h31 (unmodified h31) | KD (kd/ka) (wild-type modified h31 [2]) | inhibition of in vitro protein synthesis ([3]; cell-free translation, summary statement) | order of translation inhibition by peptides (from high to low) ([3]; peptides at 1 mM, 37 °C, GFP fluorescence) | binding affinity to modified h31 (wild-type modified h31 [1]; in words, comparable to known antibiotics targeting 16S rRNA) | order of binding preference by the 30S subunits (from high to low) ([4]; Tentagel beads, fluorescence microscopy, pH 7.3) | fluorescence on beads after 30S binding ([4]; peptide on Tentagel beads, 30S subunits overnight at 4 °C, 20 mM HEPES, pH 7.3, 10 mM MgCl2, 100 mM KCl, duplicate) | fluorescence on beads with S11-emGFP protein (His(6)-EmGFP-S11 protein)
CVRPFAL-GFP | (120 ± 1) × 10^2 M^-1s^-1 | (2.6 ± 0.02) × 10^-3 s^-1 | did not reveal any binding interactions; also recorded: No binding interaction was detected | – | – | – | – | – | – | –
TLWDLIP-GFP | (93 ± 2) × 10^2 M^-1s^-1 | (3.1 ± 0.3) × 10^-3 s^-1 | – | 330 ± 7 nM | – | – | – | – | – | –
TLWDLIP [heptapeptide selected against modified h31, with and without counter selection] | – | – | – | – | inhibit in vitro protein synthesis | CVRPFAL ≈ FVRPFAL > TLWDLIP > TYLPWPA > DIRTQRE | high nM | TYLPWPA > CVRPFAL ≈ TLWDLIP > DIRTQRE | Fluorescence is observed | did not show any fluorescence; also recorded: fluorescence was not observed
